SMILES strings stand for the structures.

The assay in a line: Compound was evaluated for functional potency and efficacy at human muscle type Nicotinic acetylcholine receptor in TE671 cells.

What is called EC50 is the midpoint of the concentration-response curve. Low values mean a more potent agent, high ones a less potent agent. Take `CC(=O)C1=CC[N+](C)(C)CC1` [4-Acetyl-1,1-dimethyl-1,2,3,6-tetrahydro-pyridinium; iodide]: the EC50 came to 100 nM.

(Values after BindingDB's records for doi:10.1021/jm970377o (Abbott Laboratories, 1998).)
